# From paper PMC11284088, “Synthesis and biochemical characterization of naphthoquinone derivatives targeting bacterial histidine kinases” (The Journal of Antibiotics, 2024)
# pIC50: −log10 of the molar value. “Also recorded” adds a separate entry of the source. Read-outs that look alike come from different tables or passages of the source.
# Columns and labels:
# WalK [1] = molecular target: T1, WalK (Bacillus subtilis, UniProt Q45614); assay: Inhibition of WalK autophosphorylation; type: biochemical; set-up: key to WalK: WalK + inhibitory effect against WalK; details: for pIC50: against WalK from B. subtilis, autophosphorylation, N.I. = no inhibition, read-out: IC50
# T1 construct: His6 (N); made in house; host or cells: E. coli BL21(DE3)
# T1 sequence (Q45614 207-611): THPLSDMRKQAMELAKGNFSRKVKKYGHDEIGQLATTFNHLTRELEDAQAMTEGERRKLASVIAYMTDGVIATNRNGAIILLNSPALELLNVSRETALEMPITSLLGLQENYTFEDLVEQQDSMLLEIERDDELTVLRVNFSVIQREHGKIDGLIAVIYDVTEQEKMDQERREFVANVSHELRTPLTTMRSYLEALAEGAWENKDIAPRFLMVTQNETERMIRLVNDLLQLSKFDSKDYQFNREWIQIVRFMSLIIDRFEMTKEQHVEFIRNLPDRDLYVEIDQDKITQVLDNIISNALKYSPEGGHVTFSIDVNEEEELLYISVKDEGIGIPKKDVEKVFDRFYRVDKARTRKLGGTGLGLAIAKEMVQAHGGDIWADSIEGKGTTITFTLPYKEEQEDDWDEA
# Protocol: (§1) Autophosphorylation of WalK was conducted at 0.5 or 1 µM in a reaction mixture comprising 50 mM Tris-HCl (pH 8.5), 100 mM KCl, 5 mM MgCl2, 100 mM NH4Cl, 5% DMSO, and 40 µM ATP. The total reaction volume was 40 µl, and the incubation lasted for 30 min at 25 °C. To terminate the reaction, 40 µl of 2 × SDS-PAGE sample buffer was added, followed by a 10-min incubation at 37 °C. Subsequently, SDS-PAGE (10% acrylamide) was performed, and the samples were subjected to Western blotting using a PVDF membrane (Bio-Rad 1620177). The primary antibody used was anti-N3-phosphohistidine antibody (clone SC56-2) (EDM Millipore Corp), and the secondary antibody was goat anti-rabbit IgG-HRP (Abcam). A 2% bovine serum albumin (Sigma-Aldrich) solution served as the blocking reagent. Signals originating from phosphorylated HKs were detected using the HRP substrate (Immobilon Western Chemiluminescent HRP substrate, Millipore) and the Multi Imager II Multi Box (Bio Tools). Signal intensities were quantified with Image Analysis Software CS Analyzer 4 (ATTO). IC50 values (50% inhibitory concentrations) were determined using Prism 7 software (GraphPad).
# (§2) In the assessment of naphthoquinone derivatives, the initial screening for inhibitory activity against WalK autophosphorylation was conducted at 50 or 100 µg ml^−1. Compounds displaying inhibitory activity were further examined to ascertain their IC50 values against WalK. For the chosen compounds, inhibition against EvgS, EnvZ, PhoQ, and CpxA HKs was also assessed. These reactions involved the use of 1 µM HK, 40 µM ATP, and a 30 min incubation at 25 °C.
# B. subtilis 168 strain [2] = assay: MIC, standard microtiter broth dilution; type: cell-based, Bacillus subtilis; set-up: key to MIC: MIC + antibacterial activity against Bacillus subtilis 168
# Protocol: The minimum inhibitory concentrations (MICs) were determined using the standard microtiter broth dilution method, as recommended by the guidelines of the Clinical Laboratory Standards Institute.
# EvgS (559–1197) D1009A = molecular target: T2, EvgS (559–1197) D1009A (Escherichia coli, UniProt P30855, D1009A); assay: Inhibition of EvgS autophosphorylation; type: biochemical, Escherichia coli K12
# T2 construct: EvgS (559–1197) D1009A; His6 (C); made in house; host or cells: E. coli BL21(DE3)
# T2 sequence (P30855 559-1197 D1009A): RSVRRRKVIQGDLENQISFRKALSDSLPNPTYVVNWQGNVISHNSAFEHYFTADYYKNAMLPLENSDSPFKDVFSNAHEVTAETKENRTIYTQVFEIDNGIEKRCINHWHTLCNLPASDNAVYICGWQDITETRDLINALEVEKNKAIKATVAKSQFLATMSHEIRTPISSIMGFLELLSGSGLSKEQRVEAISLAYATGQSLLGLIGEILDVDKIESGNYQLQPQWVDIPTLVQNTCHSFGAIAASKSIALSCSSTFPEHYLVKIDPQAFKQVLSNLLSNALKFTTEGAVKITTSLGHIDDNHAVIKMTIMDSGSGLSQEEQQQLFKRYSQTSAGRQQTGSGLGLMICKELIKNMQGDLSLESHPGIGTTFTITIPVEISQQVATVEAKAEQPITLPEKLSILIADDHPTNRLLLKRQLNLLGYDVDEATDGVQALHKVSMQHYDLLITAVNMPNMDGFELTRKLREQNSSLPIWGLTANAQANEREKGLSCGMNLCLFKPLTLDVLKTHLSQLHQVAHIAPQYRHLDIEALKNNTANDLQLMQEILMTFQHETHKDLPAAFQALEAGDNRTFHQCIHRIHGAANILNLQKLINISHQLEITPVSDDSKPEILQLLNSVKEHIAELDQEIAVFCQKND
# Protocol: as §1, §2
# EnvZ = molecular target: T3, EnvZ (Escherichia coli, UniProt P0AEJ4); assay: Inhibition of EnvZ autophosphorylation; type: biochemical, Escherichia coli K12
# T3 construct: pETEcEnvZ(223-450); His6 (C); made in house; host or cells: E. coli BL21(DE3)
# T3 sequence (P0AEJ4 223-450): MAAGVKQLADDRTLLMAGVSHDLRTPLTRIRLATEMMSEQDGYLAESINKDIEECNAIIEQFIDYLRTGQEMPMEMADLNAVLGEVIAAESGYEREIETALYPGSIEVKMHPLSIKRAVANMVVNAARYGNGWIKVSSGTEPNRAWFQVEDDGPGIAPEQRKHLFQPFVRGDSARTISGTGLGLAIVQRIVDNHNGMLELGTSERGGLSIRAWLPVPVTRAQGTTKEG
# Protocol: as §1, §2
# PhoQ = molecular target: T4, PhoQ (Escherichia coli, UniProt P23837); assay: Inhibition of PhoQ autophosphorylation; type: biochemical, Escherichia coli K12
# T4 construct: cytoplasmic regions of PhoQ (261-486) and CpxA (188-457); His6 (C); made in house; host or cells: E. coli BL21(DE3)
# T4 sequence (P23837 261-486): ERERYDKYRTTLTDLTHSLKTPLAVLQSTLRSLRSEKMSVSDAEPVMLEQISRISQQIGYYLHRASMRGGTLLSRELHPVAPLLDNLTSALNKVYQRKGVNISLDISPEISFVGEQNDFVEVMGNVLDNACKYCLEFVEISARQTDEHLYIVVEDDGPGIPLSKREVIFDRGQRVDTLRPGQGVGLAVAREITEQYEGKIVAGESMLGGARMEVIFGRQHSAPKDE
# Protocol: as §1, §2
# CpxA = molecular target: T5, CpxA (Escherichia coli, UniProt P0AE82); assay: Inhibition of CpxA autophosphorylation; type: biochemical, Escherichia coli K12
# T5 construct: cytoplasmic regions of PhoQ (261-486) and CpxA (188-457); His6 (C); made in house; host or cells: E. coli BL21(DE3)
# T5 sequence (P0AE82 188-457): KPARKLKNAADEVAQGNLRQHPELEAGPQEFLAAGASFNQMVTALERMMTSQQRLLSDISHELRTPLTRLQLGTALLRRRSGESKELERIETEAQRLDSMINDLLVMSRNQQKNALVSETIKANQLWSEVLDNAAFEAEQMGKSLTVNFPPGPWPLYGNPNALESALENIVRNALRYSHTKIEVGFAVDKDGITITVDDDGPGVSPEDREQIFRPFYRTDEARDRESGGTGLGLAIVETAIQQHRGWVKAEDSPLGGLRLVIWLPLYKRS
# Protocol: as §1, with “The” for “Autophosphorylation of WalK was conducted at 0.5 or 1 µM in a reaction mixture comprising 50 mM Tris-HCl (pH 8.5), 100 mM KCl, 5 mM MgCl2, 100 mM NH4Cl, 5% DMSO, and 40 µM ATP. The”
# as §2, with “These reactions involved the use of 1 µM HK, 40 µM ATP, and a 30 min incubation at 25 °C.” left out
# iseA (formerly yoeB) [3] = assay: RT-qPCR of iseA expression in B. subtilis cells; type: cell-based, B. subtilis 168; set-up: key to RT-qPCR: RT-qPCR + iseA gene expression was induced in B. subtilis 168; − no effect
# Protocol: In brief, the cells were aerated and grown to an optical density at 660 nm of 0.3–0.4 at 37 °C. After the addition of DMSO or naphthoquinone derivatives, the cultures were further incubated for 5 min, cooled on ice for 1 min, and then harvested by centrifugation (2300 × g, 10 min, 4 °C). The cells were resuspended in 800 µl of RNA Lysis Buffer (SV Total RNA Isolation System, Z3100, Promega), transferred to a screw-capped tube containing 400 mg of glass beads (GB-01, TOMY), and disrupted using MicroSmash (MS-100, TOMY Medico) at 3000 rpm, 60 s ON/OFF for 6 cycles. RNA was then purified from 175 µl of the supernatant using the SV Total RNA Isolation System, followed by DNase I treatment (Turbo DNA-free^TM Kit, AM1907, Invitrogen) to remove any residual genomic DNA contamination. […] The expression levels of the genes were normalized using the 16S rRNA gene as an internal standard. Each assay was performed at least three times. Statistical analyses were conducted using Tukey’s multiple comparison test (GraphPad Prism 7).
# [4] = molecular target: T6, WalK (207-611, B. subtilis) (Bacillus subtilis, UniProt Q45614); assay: Affinity selection/mass spectrometry, competition with waldiomycin; type: binding; set-up: key to AS/MS: AS/MS + competitive inhibition of the binding of waldiomycin to WalK; − increased binding of waldiomycin to WalK
# T6 construct: His6 (N); made in house; host or cells: E. coli BL21(DE3)
# T6 sequence (Q45614 207-611): as the sequence (Q45614 207-611) above
# Protocol: The affinity selection/mass spectrometry (AS/MS) is a method which can detect the binding of small compounds to proteins. This experiment was carried out following a previously established protocol (Fig. 5), with the exception of using Millipore 96-well filter plates (MSBVN1210) instead of MAHAN4510. In the experiment, 1 µM of WalK (207-611, B. subtilis, refer to Table S2) was combined and incubated with 5 µM of waldiomycin and competitor compounds in a reaction buffer. The buffer composition was as follows: 25 mM Tris-HCl (pH 8.0), 50 mM KCl, 50 mM NH4Cl, 5 mM MgCl2, 1 mM DTT, and 0.1% CHAPS. Following the incubation, the mixture was subjected to size-exclusion chromatography via centrifugation to eliminate free compounds. The protein that was eluted was then denatured by adding an equal volume of methanol/0.1% formic acid. The compounds that were subsequently released from the protein were detected using an LC/MS system. The concentrations of waldiomycin were calculated from the value of peak areas using calibration curve that covered the range of 1 nM to 1 µM (R^2 = 0.9991). The concentration of waldiomycin in the eluate of WalK and waldiomycin without competitor was 10.1 nM, and percentages to this value were calculated for other samples.
# [5] = tested on: HKs (EvgS, EnvZ, PhoQ, and CpxA); assay: Inhibition of class I HKs, summary over several HKs; type: biochemical, Escherichia coli K12; set-up: key to HKs: HKs + inhibitory effect against HKs (EvgS, EnvZ, PhoQ, and CpxA)
# Protocol: as §1, §2
# WalK [6] = molecular target: T1, WalK; set-up: key: WalK + inhibitory effect against WalK; details: summary class; cited from earlier work
# B. subtilis 168 strain [7] = tested on: B. subtilis 168 strain; set-up: method as in PMID 27999439, PMID 28674376, PMID 26582287; key: MIC + antibacterial activity against Bacillus subtilis 168; details: Bacillus subtilis 168, cited from earlier work
# iseA (formerly yoeB) [8] = tested on: iseA (formerly yoeB); set-up: method as in PMID 27999439, PMID 28674376, PMID 26582287; key: RT-qPCR + iseA gene expression was induced in B. subtilis 168; − no effect; details: summary class, iseA gene expression; cited from earlier work
# [9] = tested on: HKs (EvgS, EnvZ, PhoQ, and CpxA); set-up: key: HKs + inhibitory effect against HKs (EvgS, EnvZ, PhoQ, and CpxA); details: summary class; cited from earlier work
# class I HKs = tested on: class I HKs; set-up: method as in PMID 27999439; details: including WalK, PhoQ, EnvZ, and CpxA; cited from earlier work
# [10] = Bacillus subtilis, B. subtilis 168 strain grown in LB broth at 37 °C for 18 h, read-out: MIC
structure (smiles),measurement,setting,value
"Nc1cccc2c1C(=O)C(Cl)=C(Nc1ccc(O)c(C(=O)O)c1)C2=O [2o, 5-((5-amino-3-chloro-1,4-dioxo-1,4-dihydronaphthalen-2-yl)amino)-2-hydroxybenzoic acid]",pIC50,WalK [1],4.59
same,inhibitory activity against WalK,WalK [1]; in words,weaker
same,WalK,WalK [1]; summary class,+
same,MIC,B. subtilis 168 strain [2]; [10],16 µg/mL
same,antibacterial (antimicrobial) activity against B. subtilis,B. subtilis 168 strain [2]; in words,weaker
same,MIC,"B. subtilis 168 strain [2]; summary class, Bacillus subtilis 168",+
same,pIC50,EvgS (559–1197) D1009A,6.70
same,pIC50,EnvZ,5.89
same,pIC50,PhoQ,7.00
same,pIC50,CpxA,6.10
same,expression of iseA,"iseA (formerly yoeB) [3]; exponentially growing cells, subMIC or MIC levels, 5 min, relative to DMSO control",did not change
same,RT-qPCR,"iseA (formerly yoeB) [3]; summary class, iseA gene expression in B. subtilis 168",−
same,effect on the signal of waldiomycin,"[4]; compound 30 and 100 µM, in words",reduced the signal of waldiomycin in a dose-dependent manner
same,signal of waldiomycin compared to only waldiomycin with WalK,"[4]; compound at 100 µM, waldiomycin 5 µM, WalK 1 µM",about 10%
same,binding to WalK competitive with that of waldiomycin,[4]; in words,competitive; also recorded: competitively interacted with waldiomycin
same,AS/MS,"[4]; summary class, effect on binding of waldiomycin to WalK",+
same,"inhibition of EvgS, EnvZ, PhoQ, and CpxA",[5]; in words,inhibited all four of these HKs
same,HKs,"[5]; summary class, EvgS, EnvZ, PhoQ, and CpxA",+
"C[C@@H]1O[C@](C)(C(=O)O)OC1/C=C/C=C/C=C/C(=O)O[C@H]1CC[C@H](c2ccc3c(c2O)C(=O)c2ccc4c(c2C3=O)C(=O)[C@@H](O)[C@](C)(O)C4)O[C@@H]1C (stereo partly shown) [Waldiomycin, reference compound]",pIC50,WalK [1],4.88
same,MIC,B. subtilis 168 strain [2]; [10],8 µg/mL
same,pIC50,EvgS (559–1197) D1009A,4.18
same,pIC50,EnvZ,4.48
same,pIC50,PhoQ,4.96
same,pIC50,CpxA,4.03
same,concentration of waldiomycin in the eluate of WalK and waldiomycin,"[4]; without competitor, WalK 1 µM, waldiomycin 5 µM",10.1 nM
same,WalK,WalK [6],+
same,MIC,B. subtilis 168 strain [7],8 µg/mL
same,MIC,B. subtilis 168 strain [7]; summary class,+
same,RT-qPCR,iseA (formerly yoeB) [8],+
same,HKs,[9],+
same,inhibition of class I HKs,class I HKs,inhibited 13 class I HKs
